According to PMC9705844, “Inhibitory Activity of 4-O-Benzoyl-3′-O-(OMethylsinapoyl) Sucrose from Polygala tenuifolia on Escherichia coli β-Glucuronidase” (Journal of Microbiology and Biotechnology, 2021):

Columns and labels:
β-glucuronidase [1] = molecular target: T1, β-glucuronidase (Escherichia coli, UniProt P05804); assay: PNPG hydrolysis assay at […] nm with commercial enzyme; positive control; format: biochemical
T1 construct: gene uidA

β-glucuronidase [2] = molecular target: T1, β-glucuronidase; assay: PNPG hydrolysis assay at […] nm with commercial enzyme; Lineweaver-Burk and secondary plots (IC50 […]); format: biochemical

T1 sequence (P05804 whole entry): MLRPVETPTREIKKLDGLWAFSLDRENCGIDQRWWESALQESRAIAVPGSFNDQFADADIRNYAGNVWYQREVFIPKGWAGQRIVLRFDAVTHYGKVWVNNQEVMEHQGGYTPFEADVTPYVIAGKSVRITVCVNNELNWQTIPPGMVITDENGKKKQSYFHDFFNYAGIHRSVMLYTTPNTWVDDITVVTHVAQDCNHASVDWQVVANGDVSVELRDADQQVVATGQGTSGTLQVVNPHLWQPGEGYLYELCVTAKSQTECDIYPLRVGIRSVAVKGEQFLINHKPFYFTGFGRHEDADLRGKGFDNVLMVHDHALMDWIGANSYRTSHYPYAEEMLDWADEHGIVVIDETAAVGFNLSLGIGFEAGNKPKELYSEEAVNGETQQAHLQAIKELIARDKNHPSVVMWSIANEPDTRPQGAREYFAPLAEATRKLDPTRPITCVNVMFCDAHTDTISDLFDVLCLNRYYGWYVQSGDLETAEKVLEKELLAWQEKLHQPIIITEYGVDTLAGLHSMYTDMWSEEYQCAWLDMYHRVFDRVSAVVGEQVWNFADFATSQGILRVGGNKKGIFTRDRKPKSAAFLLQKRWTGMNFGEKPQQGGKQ

O=C(O)[C@@H](O)[C@H]1OC(=O)[C@H](O)[C@H]1O [DSA, D-saccharic acid 1,4-lactone]
IC50 (β-glucuronidase [1]): 19.6 ± 2.4 µM

COc1cc(/C=C/C(=O)O[C@H]2[C@H](O)[C@@H](CO)O[C@@]2(CO)O[C@H]2O[C@H](CO)[C@@H](OC(=O)c3ccccc3)[C@H](O)[C@H]2O)cc(OC)c1OC [compound 3, 4-O-Benzoyl-3′-O-(O-methylsinapoyl) sucrose]
Ki (β-glucuronidase [2]): 13.4 µM
